Measurements taken from PubChem BioAssay (NCI).
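Test compounds were applied to cells in 96-well plates for 48 hours at 5 doses. The concentration for full growth arrest is given as TGI.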

Tests used:
Assay in all cases: inhibition of tumour cell growth, NCI panel, 48 h
[1] = tested on: 786-0 renal
[2] = tested on: A498 renal
[3] = tested on: A549 NSCLC
[4] = tested on: ACHN renal
[5] = tested on: BT-549 breast
[6] = tested on: CAKI-1 renal
[7] = tested on: CCRF-CEM leukemia
[8] = tested on: COLO 205 colon
[9] = tested on: DU-145 prostate
[10] = tested on: EKVX NSCLC
[11] = tested on: HCC-2998 colon
[12] = tested on: HCT-116 colon
[13] = tested on: HCT-15 colon
[14] = tested on: HL-60(TB) leukemia
[15] = tested on: HOP-62 NSCLC
[16] = tested on: HOP-92 NSCLC
[17] = tested on: HS 578T breast
[18] = tested on: HT29 colon
[19] = tested on: IGROV1 ovarian
[20] = tested on: K-562 leukemia
[21] = tested on: KM12 colon
[22] = tested on: LOX IMVI melanoma
[23] = tested on: M14 melanoma
[24] = tested on: MALME-3M melanoma
[25] = tested on: MCF7 breast
[26] = tested on: MDA-MB-231 breast
[27] = tested on: MDA-MB-435
[28] = tested on: MDA-N
[29] = tested on: MOLT-4 leukemia
[30] = tested on: NCI-H226 lung
[31] = tested on: NCI-H23 lung
[32] = tested on: NCI-H460 lung
[33] = tested on: NCI/ADR-RES ovarian
[34] = tested on: OVCAR-3 ovarian
[35] = tested on: OVCAR-4 ovarian
[36] = tested on: OVCAR-5 ovarian
[37] = tested on: OVCAR-8 ovarian
[38] = tested on: PC-3 prostate
[39] = tested on: RPMI-8226 leukemia
[40] = tested on: RXF 393 renal
[41] = tested on: SF-268 CNS
[42] = tested on: SF-295 CNS
[43] = tested on: SF-539 CNS
[44] = tested on: SK-MEL-2 melanoma
[45] = tested on: SK-MEL-28 melanoma
[46] = tested on: SK-MEL-5 melanoma
[47] = tested on: SK-OV-3 ovarian
[48] = tested on: SN12C renal
[49] = tested on: SNB-19 CNS
[50] = tested on: SNB-75 CNS
[51] = tested on: SR leukemia
[52] = tested on: SW-620 colon
[53] = tested on: T-47D breast
[54] = tested on: TK-10 renal
[55] = tested on: U251 CNS
[56] = tested on: UACC-257 melanoma
[57] = tested on: UACC-62 melanoma
[58] = tested on: UO-31 renal
[59] = tested on: NCI-H522 lung

`CCN1c2cc(Br)cc3[nH]c(=O)n(c23)CCC1C` (centres undefined) showed a TGI [1] of 28.1 µM, a TGI [2] of 29 µM and a TGI [3] of 35.1 µM. For the same molecule, the TGI [4] was 63.5 µM, the TGI [5] was 31.2 µM and the TGI [6] was 36 µM. For the same molecule, the TGI [7] was greater than 100 µM, the TGI [8] was 31.3 µM and the TGI [9] was 36 µM. For the same molecule, the TGI [10] was 23.5 µM, the TGI [11] was 31.6 µM and the TGI [12] was 28.3 µM. The TGI [13] was 35.5 µM, the TGI [14] was 35.8 µM and the TGI [15] was 37.2 µM. For the same molecule, the TGI [16] was 9.25 µM, the TGI [17] was 28.9 µM and the TGI [18] was 31.6 µM. The TGI [19] was 31.5 µM, the TGI [20] was greater than 100 µM and the TGI [21] was 47.4 µM. It also gave a TGI [22] of 24.7 µM, a TGI [23] of 34.8 µM and a TGI [24] of 56.1 µM. For the same molecule, the TGI [25] was 54.5 µM, the TGI [26] was 43.1 µM and the TGI [27] was 16.8 µM. For the same molecule, the TGI [28] was 19.2 µM, the TGI [29] was 65.5 µM and the TGI [30] was 37.8 µM. For the same molecule, the TGI [31] was 53.2 µM, the TGI [32] was 35.9 µM and the TGI [33] was 23 µM. For the same molecule, the TGI [34] was 28.9 µM, the TGI [35] was 65.2 µM and the TGI [36] was 49.9 µM. The TGI [37] was 30.9 µM, the TGI [38] was 39.7 µM and the TGI [39] was greater than 100 µM. It also gave a TGI [40] of 27.6 µM, a TGI [41] of 46.1 µM and a TGI [42] of 39.6 µM. The TGI [43] was greater than 100 µM, the TGI [44] was 31.8 µM and the TGI [45] was 65.8 µM. It also gave a TGI [46] of 30 µM, a TGI [47] of 49.4 µM and a TGI [48] of 30.6 µM. It also gave a TGI [49] greater than 100 µM, a TGI [50] of 32.4 µM and a TGI [51] of 65.9 µM. The TGI [52] was greater than 100 µM, the TGI [53] was 59.9 µM and the TGI [54] was 49.2 µM. The TGI [55] was 28.6 µM, the TGI [56] was 40.6 µM and the TGI [57] was 24.6 µM. It also gave a TGI [58] of 37.7 µM.

With `C=C1C[C@@H]2O[C@H]3[C@H]4[C@@H](C[C@@H](C)[C@@H](OC(C)=O)[C@H]42)[C@@H](C)CO[C@@]3(C)[C@H](OC(=O)CCCCCCC)C[C@H]1O` the TGI [1] was 28.9 µM, the TGI [2] was 30.8 µM and the TGI [3] was 34 µM. The TGI [4] was 35 µM, the TGI [5] was 32.9 µM and the TGI [6] was 28 µM. The TGI [7] was 38 µM, the TGI [8] was 29.9 µM and the TGI [9] was 28.3 µM. It also gave a TGI [10] of 31 µM, a TGI [11] of 30.9 µM and a TGI [12] of 30.1 µM. For the same molecule, the TGI [13] was 30.4 µM, the TGI [14] was 44.1 µM and the TGI [15] was 32.9 µM. For the same molecule, the TGI [16] was 30.4 µM, the TGI [17] was 36.4 µM and the TGI [18] was 46.2 µM. It also gave a TGI [19] of 36 µM, a TGI [20] greater than 100 µM and a TGI [21] of 31.5 µM. The TGI [22] was 26.6 µM, the TGI [23] was 35.2 µM and the TGI [25] was 40.4 µM. The TGI [26] was 27 µM, the TGI [27] was 34.8 µM and the TGI [28] was 30.3 µM. The TGI [29] was 52.7 µM, the TGI [30] was 26.1 µM and the TGI [31] was 40.2 µM. The TGI [32] was 30.1 µM, the TGI [59] was 34.4 µM and the TGI [33] was 30.7 µM. It also gave a TGI [34] of 37.2 µM, a TGI [35] of 28.1 µM and a TGI [36] of 32 µM. The TGI [37] was 31.4 µM, the TGI [38] was 28.7 µM and the TGI [39] was 42.6 µM. It also gave a TGI [40] of 36.1 µM, a TGI [41] of 31.1 µM and a TGI [42] of 36.4 µM. For the same molecule, the TGI [43] was 40.5 µM, the TGI [44] was 36.7 µM and the TGI [45] was 32.7 µM. For the same molecule, the TGI [46] was 28.8 µM, the TGI [48] was 31.1 µM and the TGI [49] was 32.4 µM. It also gave a TGI [50] of 32.6 µM, a TGI [51] of 36.3 µM and a TGI [52] of 40.3 µM. It also gave a TGI [53] of 24.6 µM, a TGI [54] of 32.8 µM and a TGI [55] of 30.6 µM. For the same molecule, the TGI [56] was 32.6 µM, the TGI [57] was 31.4 µM and the TGI [58] was 29.7 µM.

For `C=C1[C@H](OCC(C)C)[C@@H](O)[C@@H](OC(=O)c2cccnc2)C(C)(C)/C=C/[C@H](C)[C@H](OC(C)=O)[C@@]2(O)C[C@@](C)(OC(C)=O)[C@H](OC(=O)c3ccccc3)[C@@H]2[C@H]1OC(C)=O`, the TGI [1] was greater than 5 µM, the TGI [2] was 2.79 µM and the TGI [3] was greater than 5 µM. For the same molecule, the TGI [4] was 2.87 µM, the TGI [5] was greater than 4.23 µM and the TGI [6] was greater than 5 µM. The TGI [7] was greater than 2.82 µM, the TGI [8] was greater than 5 µM and the TGI [9] was greater than 5 µM. The TGI [10] was greater than 5 µM, the TGI [11] was 1.59 µM and the TGI [12] was greater than 5 µM. It also gave a TGI [13] of 4.97 µM, a TGI [14] greater than 2.09 µM and a TGI [15] of 2.26 µM. It also gave a TGI [16] greater than 5 µM, a TGI [17] greater than 2.39 µM and a TGI [18] of 1.17 µM. For the same molecule, the TGI [19] was greater than 5 µM, the TGI [20] was greater than 3.36 µM and the TGI [21] was greater than 2.97 µM. The TGI [22] was greater than 5 µM, the TGI [23] was greater than 4.49 µM and the TGI [24] was 1.46 µM. It also gave a TGI [25] greater than 5 µM, a TGI [26] greater than 5 µM and a TGI [27] greater than 3.97 µM. It also gave a TGI [28] greater than 5 µM, a TGI [29] greater than 2.79 µM and a TGI [30] of 4.57 µM. The TGI [31] was greater than 3.13 µM, the TGI [32] was 1.52 µM and the TGI [59] was 2.54 µM. For the same molecule, the TGI [33] was greater than 3.25 µM, the TGI [34] was greater than 3.67 µM and the TGI [35] was greater than 5 µM. The TGI [36] was greater than 5 µM, the TGI [37] was greater than 3.28 µM and the TGI [38] was greater than 5 µM. The TGI [39] was 3.35 µM, the TGI [40] was greater than 5 µM and the TGI [41] was greater than 3.24 µM. It also gave a TGI [42] greater than 4.14 µM, a TGI [43] of 1.58 µM and a TGI [44] greater than 3.78 µM. The TGI [45] was greater than 5 µM, the TGI [46] was greater than 5 µM and the TGI [47] was greater than 5 µM. For the same molecule, the TGI [48] was greater than 5 µM, the TGI [49] was greater than 5 µM and the TGI [50] was greater than 2.87 µM. The TGI [51] was greater than 3.35 µM, the TGI [52] was greater than 5 µM and the TGI [53] was greater than 5 µM. For the same molecule, the TGI [54] was greater than 5 µM, the TGI [55] was greater than 5 µM and the TGI [56] was greater than 5 µM. For the same molecule, the TGI [57] was greater than 5 µM and the TGI [58] was greater than 1.24 µM.
